{
  "source": "patent US6486199B1",
  "about": "“Spiro and dispiro 1,2,4-trioxolane antimalarials” (Medicines for Malaria Venture MMV International Centre …, priority 2001, dated 2002)",
  "key": {"[1]": {"tested_on": "chloroquine-resistant K1 strain of P. falciparum", "experiment": "in vitro screen against chloroquine-resistant K1 strain of P. falciparum", "format": "cell-based", "settings": "in vitro, K1 strain"}, "[2]": {"tested_on": "chloroquine-sensitive NF54 strain of P. falciparum", "experiment": "in vitro screen against chloroquine-sensitive NF54 strain of P. falciparum", "format": "cell-based", "settings": "in vitro, NF54 strain"}, "[3]": {"tested_on": "ANKA strain of P. Berghei", "experiment": "single dose STI in vivo screen in infected Moro SPF mice", "settings": "for Activity (%) po / Activity (%) sc: percent reduction in parasitemia day 3 post-infection"}, "P. berghei [4]": {"tested_on": "P. berghei", "experiment": "1-day Peters test against P. berghei in vivo", "settings": "for oral activity based on po ED50/ED90 values: ranking among trioxolanes and controls"}, "P. berghei [5]": {"tested_on": "P. berghei", "experiment": "4-day Peters test against P. berghei in vivo", "settings": "4 day"}, "Schistosoma mansoni": {"tested_on": "Schistosoma mansoni", "experiment": "treatment of mice infected with Schistosoma mansoni cercaria, six weekly oral doses", "format": "in vivo", "settings": "artemether at doses four times higher than OZ05; arteflene 6×600 mg/kg p.o.; fenozan 6×100 mg/kg p.o.", "source_text": "Mice (MORO SPF female 18-20g) were infected with 90 (±10) cecaria of Schistosoma mansoni subcutaneously."}, "NB2a cell line": {"tested_on": "NB2a cell line", "experiment": "neurotoxicity against the NB2a cell line", "format": "cell-based"}, "[6]": {"tested_on": "21-day-old schistosomules of Schistosoma mansoni", "experiment": "effect on 21-day-old schistosomules in mice", "format": "in vivo", "settings": "single 200 mg/kg per os", "experimental": "[…] Each group was treated per os with OZ compounds at a single dose of 200 mg/kg. Untreated mice served as the control. All groups were killed 4 weeks after treatment and the liver and intestine were removed and separated. The liver and intestine were compressed and alive male and female worms could be seen and counted. The effect of the compounds was evaluated by mean total and female worm burden."}, "[7]": {"experiment": "differential scanning calorimetry (DSC), thermal stability", "format": "physicochemical", "settings": "thermal decomposition"}, "[8]": {"tested_on": "adult schistosomes (49-day-old) of Schistosoma mansoni", "experiment": "effect on adult schistosomes (49-day-old) in mice", "format": "in vivo", "settings": "dose used was 200 mg/kg"}},
  "note": "Marks after values point to notes of the source that are not given here.",
  "data": [
    {"compound": "fenozan [reference compound]", "values": [
      {"measurement": "IC50 (ng/ml) K1", "setting": "[1]", "value": 3.2, "unit": "ng/mL"},
      {"measurement": "IC50 (ng/ml) NF54", "setting": "[2]", "value": 3.0, "unit": "ng/mL"},
      {"measurement": "Activity (%) po", "setting": "[3]; single 10 mg/kg po", "value": 99.95, "unit": "%"},
      {"measurement": "Activity (%) sc", "setting": "[3]; single 10 mg/kg sc", "value": 100, "unit": "%"},
      {"measurement": "Survival (days) po", "setting": "[3]; single 10 mg/kg po", "value": 8.6, "unit": "days"},
      {"measurement": "Survival (days) sc", "setting": "[3]; single 10 mg/kg sc", "value": 13.4, "unit": "days"},
      {"measurement": "P. berghei (1 day) ED50 po", "setting": "P. berghei [4]; 1 day", "value": 1.7, "unit": "mg/kg"},
      {"measurement": "P. berghei (1 day) ED90 po", "setting": "P. berghei [4]; 1 day", "value": 4.3, "unit": "mg/kg"},
      {"measurement": "P. berghei (1 day) ED50 sc", "setting": "P. berghei [4]; 1 day, sc", "value": 1.7, "unit": "mg/kg"},
      {"measurement": "P. berghei (1 day) ED90 sc", "setting": "P. berghei [4]; 1 day, sc", "value": 3.2, "unit": "mg/kg"},
      {"measurement": "oral activity based on po ED50/ED90 values", "setting": "P. berghei [4]", "value": "only slightly less orally active than OZ11"},
      {"measurement": "P. berghei (4 day) ED50 po", "setting": "P. berghei [5]", "value": 1.9, "unit": "mg/kg"},
      {"measurement": "P. berghei (4 day) ED90 po", "setting": "P. berghei [5]", "value": 2.7, "unit": "mg/kg"},
      {"measurement": "P. berghei (4 day) ED50 sc", "setting": "P. berghei [5]", "value": 1.1, "unit": "mg/kg"},
      {"measurement": "P. berghei (4 day) ED90 sc", "setting": "P. berghei [5]", "value": 2.3, "unit": "mg/kg"},
      {"measurement": "activity in the same assay", "setting": "Schistosoma mansoni", "value": "inactive"}
    ]},
    {"compound": "CCOC(=O)CCC1CCCCC12OOC1(CCCCC1)O2", "note": "(stereo not shown) [OZ07, 1-[2-(Ethoxycarbonyl)ethyl]-7,14,15-trioxadispiro[5.1.5.2]pentadecane]", "values": [
      {"measurement": "IC50", "setting": "[1]; Plasmodium falciparum, read-out: IC50 (ng/ml) K1", "value": 66, "unit": "ng/mL"},
      {"measurement": "IC50", "setting": "[2]; Plasmodium falciparum, read-out: IC50 (ng/ml) NF54", "value": 49, "unit": "ng/mL"},
      {"measurement": "antimalarial activity, overall assessment", "setting": "[3]; overall judgement of in vitro and in vivo data of Table 2", "value": "less active"},
      {"measurement": "Activity (%) po", "setting": "[3]; single 100 mg/kg po", "value": "0/0%"},
      {"measurement": "Activity (%) sc", "setting": "[3]; single 100 mg/kg sc", "value": "0/0%"},
      {"measurement": "IC50", "setting": "NB2a cell line", "value": 27, "unit": "µM"}
    ]},
    {"compound": "CCOC(=O)N1CCC2(CC1)OOC1(O2)C2CC3CC(C2)CC1C3", "note": "(stereo not shown) [OZ23, Adamantane-2-spiro-3′-8′-ethoxycarbonyl-1′,2′,4′-trioxa-8′-azaspiro[4.5]decane]", "values": [
      {"measurement": "in vivo activity", "setting": "[3]; 10 mg/kg po/sc data of Table 2", "value": "best in vivo activity"},
      {"measurement": "P. berghei (1 day) ED50 po", "setting": "P. berghei [4]; 1 day", "value": 1.6, "unit": "mg/kg"},
      {"measurement": "P. berghei (1 day) ED90 po", "setting": "P. berghei [4]; 1 day", "value": 5.5, "unit": "mg/kg"},
      {"measurement": "P. berghei (1 day) ED90 sc", "setting": "P. berghei [4]; 1 day, sc", "value": "NA/1.9 mg/kg"},
      {"measurement": "oral activity based on po ED50/ED90 values", "setting": "P. berghei [4]", "value": "only slightly less orally active than OZ11"},
      {"measurement": "P. berghei (4 day) ED50 po", "setting": "P. berghei [5]", "value": 0.9, "unit": "mg/kg"},
      {"measurement": "P. berghei (4 day) ED90 po", "setting": "P. berghei [5]", "value": 2.0, "unit": "mg/kg"},
      {"measurement": "P. berghei (4 day) ED50 sc", "setting": "P. berghei [5]", "value": 0.5, "unit": "mg/kg"},
      {"measurement": "P. berghei (4 day) ED90 sc", "setting": "P. berghei [5]", "value": 0.9, "unit": "mg/kg"},
      {"measurement": "FWR (%)", "setting": "[6]; female worm reduction rate", "value": 84, "unit": "%"},
      {"measurement": "Mean female worm burden", "setting": "[6]; mean ± standard deviation", "value": "2.0 ± 1.0^b"},
      {"measurement": "TWR (%)", "setting": "[6]; total worm reduction rate", "value": 90, "unit": "%"},
      {"measurement": "Tm dec. (° C.)", "setting": "[7]", "value": 160.8, "unit": "°C"},
      {"measurement": "Percentage of dead worm", "setting": "[8]", "value": "4 (5/124)"},
      {"measurement": "Total dead worm", "setting": "[8]", "value": 5},
      {"measurement": "TWR (%)", "setting": "[8]; total worm reduction rate", "value": 0, "unit": "%"},
      {"measurement": "Mean total worm burden", "setting": "[8]; x ± SD", "value": "39.7 ± 19.6"}
    ]},
    {"compound": "C[C@@H]1C(=O)C[C@H]2C[C@@H]1OO[C@@]2(C)/C=C\\c1ccc(C(F)(F)F)cc1C(F)(F)F", "note": "[arteflene, reference compound]", "values": [
      {"measurement": "activity in the same assay", "setting": "Schistosoma mansoni", "value": "inactive"}
    ]}
  ]
}
